Laboratory results published in US10100010B1, “4-methoxy pyrrole derivatives or salts thereof and pharmaceutical composition comprising the same” (Daewoong Pharmaceutical Co., Ltd., priority 2015, dated 2018).

Key:
[1] = tested on: basal gastric acid secretion in pylorus-ligated rats; experiment: Inhibitory effects on basal gastric acid secretion in pylorus-ligated rats (Shay's rat model); assay type: in vivo, Sprague Dawley (SD) rats; settings: 2.0 mg/kg into the duodenum, 5 hours after ligation
Protocol: Inhibitory effects of the compounds prepared in Examples 2, 8 and 22 on basal gastric acid secretion were measured according to Shay's rat model (Shay, H., et al., 1945, gastroenterology, 5, p 43-61). Male Sprague Dawley (SD) rats (body weight 180-220 g) were divided into 4 groups (n=6-7) and fasted for 18 hours with free access to water. Under isoflurane anesthesia, the abdomens of the rats were incised and then the pylorus was ligated. Immediately after ligation, control group was administered with 2 mL/kg of 0.5% methyl cellulose (MC) aqueous solution into the duodenum, and the other groups were administered with test compounds suspended in 0.5% methyl cellulose (MC) aqueous solution at a dose of 2.0 mg/kg/2 ml. 5 hours after ligation, the test animals were sacrificed, and gastric contents were removed. The removed contents were centrifuged at 4,000×g for 10 minutes and the supernatant was separated to obtain the gastric juice. The amount and pH of the gastric juice were measured and the acidity in the gastric juice was measured by 0.1N NaOH volume (ueq/mL) required for the titration of gastric acid to pH 7.0. Total acid output was measured by multiplying the acidity of the gastric juice by the amount of the gastric juice. % inhibitory activity of test compounds were calculated according to the following equation, and the results are shown in Table 2. % inhibitory activity of test compound=[(total acid output of control group-total acid output of the group treated with test compounds)/total acid output of control group]×100 [Equation 1]

[2] = tested on: H. pylori; experiment: Antimicrobial activity against H. pylori, MIC by agar dilution method; assay type: cell-based; settings: Helicobacter pylori

In the case of `CNCc1cn(S(=O)(=O)c2cccc(F)c2)c(-c2c(F)cc(F)cc2F)c1OC.Cl` [Example 22, 1-(1-((3-fluorophenyl)sulfonyl)-4-methoxy-5-(2,4,6-trifluorophenyl)-1H-pyrrol-3-yl)-N-methylmethanamine hydrochloride], the “% inhibitory activity (total acid output)” value [1] is reported as 88.1%, the MIC ([2]; strain 45 (HPKTCC B0004)) is reported as 75 µg/mL and the MIC ([2]; strain 51 (HPKTCC B0006)) is reported as 75 µg/mL. For the same compound, the MIC ([2]; strain 52 (HPKTCC B0007)) was 75 µg/mL, the MIC ([2]; strain 92-33-1 (HPKTCC B0182)) was 75 µg/mL and the MIC ([2]; strain 92-82-1 (HPKTCC B0233)) was 75 µg/mL. The MIC ([2]; strain 92-157 (HPKTCC B0152)) was 75 µg/mL, the MIC ([2]; strain 118 (HPKTCC B0017)) was 75 µg/mL and the MIC ([2]; strain 126 (HPKTCC B0020)) was 75 µg/mL. It also gave an MIC ([2]; strain 127 (HPKTCC B0021)) of 75 µg/mL, an MIC ([2]; strain 133 (HPKTCC B0023)) of 75 µg/mL and an MIC ([2]; strain 134 (HPKTCC B0024)) of 75 µg/mL. The MIC ([2]; strain 138 (HPKTCC B0026)) was 75 µg/mL, the MIC ([2]; strain 156 (HPKTCC B0035)) was 75 µg/mL and the MIC ([2]; strain 159 (HPKTCC B0037)) was 75 µg/mL. The MIC ([2]; strain 164 (HPKTCC B0040)) was 75 µg/mL, the MIC ([2]; strain 183 (HPKTCC B0047)) was 75 µg/mL and the MIC ([2]; strain 193 (HPKTCC B0051)) was 75 µg/mL. It also gave an MIC ([2]; strain 198 (HPKTCC B0055)) of 75 µg/mL, an MIC ([2]; strain 205 (HPKTCC B0058)) of 75 µg/mL and an MIC ([2]; strain 210 (HPKTCC B0061)) of 75 µg/mL. For the same compound, the MIC ([2]; strain 221 (HPKTCC B0068)) was 75 µg/mL, the MIC ([2]; strain 228 (HPKTCC B0071)) was 75 µg/mL and the MIC ([2]; strain 235 (HPKTCC B0074)) was 75 µg/mL. For the same compound, the MIC ([2]; strain 236 (HPKTCC B0075)) was 75 µg/mL, the MIC ([2]; strain 302 (HPKTCC B0088)) was 75 µg/mL and the MIC ([2]; strain 26695 (HPKTCC B0100)) was 75 µg/mL. The MIC ([2]; strain 26695 CHGKG (HPKTCC B3412)) was 150 µg/mL, the MIC ([2]; strain CH24 (HPKTCC B0508)) was 75 µg/mL and the MIC ([2]; strain CH94 (HPKTCC B0582)) was 75 µg/mL. The MIC ([2]; strain CH173 (HPKTCC B0494)) was 75 µg/mL, the MIC ([2]; strain CH175 (HPKTCC B0496)) was 75 µg/mL and the MIC ([2]; strain CH189 (HPKTCC B0498)) was 75 µg/mL. The MIC ([2]; strain CH192 (HPKTCC B0500)) was 75 µg/mL, the MIC ([2]; strain CH272 (HPKTCC B0516)) was 75 µg/mL and the MIC ([2]; strain CH369 (HPKTCC B0522)) was 75 µg/mL. For the same compound, the MIC ([2]; strain CH381 (HPKTCC B0524)) was 75 µg/mL, the MIC ([2]; strain CH498 (HPKTCC B0536)) was 75 µg/mL and the MIC ([2]; strain CH502 (HPKTCC B0537)) was 75 µg/mL. It also gave an MIC ([2]; strain CH523 (HPKTCC B0541)) of 75 µg/mL, an MIC ([2]; strain CH541 (HPKTCC B0548)) of 75 µg/mL and an MIC ([2]; strain CH588 (HPKTCC B0556)) of 75 µg/mL. It also gave an MIC ([2]; strain CH609 (HPKTCC B0558)) of 75 µg/mL, an MIC ([2]; strain CH612 (HPKTCC B0559)) of 75 µg/mL and an MIC ([2]; strain CH631 (HPKTCC B0560)) of 75 µg/mL. For the same compound, the MIC ([2]; strain CH635 (HPKTCC B0562)) was 75 µg/mL, the MIC ([2]; strain CH674 (HPKTCC B0564)) was 75 µg/mL and the MIC ([2]; strain CH1056 (HPKTCC B0487)) was 75 µg/mL. The MIC ([2]; strain CJH7 (HPKTCC B0606)) was 75 µg/mL, the MIC ([2]; strain CJH8 (HPKTCC B0608)) was 75 µg/mL and the MIC ([2]; strain CJH9 (HPKTCC B0610)) was 75 µg/mL. The MIC ([2]; strain CJH10 (HPKTCC B0587)) was 75 µg/mL, the MIC ([2]; strain CJH13 (HPKTCC B0589)) was 75 µg/mL and the MIC ([2]; strain CJH31 (HPKTCC B0594)) was 75 µg/mL. For the same compound, the MIC ([2]; strain CJH33 (HPKTCC B0595)) was 75 µg/mL, the MIC ([2]; strain CJH43 (HPKTCC B0596)) was 75 µg/mL and the MIC ([2]; strain CJH50 (HPKTCC B0599)) was 75 µg/mL. It also gave an MIC ([2]; strain G88001 (HPKTCC B0722)) of 75 µg/mL, an MIC ([2]; strain G88007 (HPKTCC B0725)) of 75 µg/mL and an MIC ([2]; strain J99 (HPKTCC B0748)) of 75 µg/mL. It also gave an MIC ([2]; strain SS1-P-4′ (HPKTCC B3392)) of 75 µg/mL.
